Assay results as given in PubChem BioAssay (NCI).
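Test compounds were applied to cells in 96-well plates for 48 hours at 5 doses. GI50 marks 50% less growth. TGI is the concentration that stops growth completely.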

What was measured:
Assay in all cases: inhibition of tumour cell growth, NCI panel, 48 h
786-0 renal = test system: 786-0 renal
A498 renal = test system: A498 renal
A549 NSCLC = test system: A549 NSCLC
ACHN renal = test system: ACHN renal
BT-549 breast = test system: BT-549 breast
CAKI-1 renal = test system: CAKI-1 renal
CCRF-CEM leukemia = test system: CCRF-CEM leukemia
COLO 205 colon = test system: COLO 205 colon
DU-145 prostate = test system: DU-145 prostate
EKVX NSCLC = test system: EKVX NSCLC
HCC-2998 colon = test system: HCC-2998 colon
HCT-116 colon = test system: HCT-116 colon
HCT-15 colon = test system: HCT-15 colon
HL-60(TB) leukemia = test system: HL-60(TB) leukemia
HOP-62 NSCLC = test system: HOP-62 NSCLC
HOP-92 NSCLC = test system: HOP-92 NSCLC
HS 578T breast = test system: HS 578T breast
HT29 colon = test system: HT29 colon
IGROV1 ovarian = test system: IGROV1 ovarian
K-562 leukemia = test system: K-562 leukemia
KM12 colon = test system: KM12 colon
LOX IMVI melanoma = test system: LOX IMVI melanoma
M14 melanoma = test system: M14 melanoma
MALME-3M melanoma = test system: MALME-3M melanoma
MCF7 breast = test system: MCF7 breast
MDA-MB-231 breast = test system: MDA-MB-231 breast
MDA-MB-435 = test system: MDA-MB-435
MOLT-4 leukemia = test system: MOLT-4 leukemia
NCI-H226 lung = test system: NCI-H226 lung
NCI-H23 lung = test system: NCI-H23 lung
NCI-H460 lung = test system: NCI-H460 lung
NCI-H522 lung = test system: NCI-H522 lung
NCI/ADR-RES ovarian = test system: NCI/ADR-RES ovarian
OVCAR-3 ovarian = test system: OVCAR-3 ovarian
OVCAR-4 ovarian = test system: OVCAR-4 ovarian
OVCAR-5 ovarian = test system: OVCAR-5 ovarian
OVCAR-8 ovarian = test system: OVCAR-8 ovarian
PC-3 prostate = test system: PC-3 prostate
RPMI-8226 leukemia = test system: RPMI-8226 leukemia
RXF 393 renal = test system: RXF 393 renal
SF-268 CNS = test system: SF-268 CNS
SF-295 CNS = test system: SF-295 CNS
SF-539 CNS = test system: SF-539 CNS
SK-MEL-2 melanoma = test system: SK-MEL-2 melanoma
SK-MEL-28 melanoma = test system: SK-MEL-28 melanoma
SK-MEL-5 melanoma = test system: SK-MEL-5 melanoma
SK-OV-3 ovarian = test system: SK-OV-3 ovarian
SN12C renal = test system: SN12C renal
SNB-19 CNS = test system: SNB-19 CNS
SNB-75 CNS = test system: SNB-75 CNS
SW-620 colon = test system: SW-620 colon
T-47D breast = test system: T-47D breast
TK-10 renal = test system: TK-10 renal
U251 CNS = test system: U251 CNS
UACC-257 melanoma = test system: UACC-257 melanoma
UACC-62 melanoma = test system: UACC-62 melanoma
UO-31 renal = test system: UO-31 renal

SMILES: O=C(/C=C/c1ccc([N+](=O)[O-])o1)NNC(=O)c1cc2ccccc2cc1O
- GI50 (786-0 renal): 1540 nM
- TGI (786-0 renal): 3470 nM
- GI50 (A498 renal): 2110 nM
- TGI (A498 renal): 6170 nM
- GI50 (A549 NSCLC): 3950 nM
- TGI (A549 NSCLC): > 100000 nM
- GI50 (ACHN renal): 688 nM
- TGI (ACHN renal): 2240 nM
- GI50 (BT-549 breast): 1490 nM
- TGI (BT-549 breast): 5740 nM
- GI50 (CAKI-1 renal): 1040 nM
- GI50 (CCRF-CEM leukemia): 441 nM
- TGI (CCRF-CEM leukemia): > 100000 nM
- GI50 (COLO 205 colon): 1920 nM
- TGI (COLO 205 colon): 6540 nM
- GI50 (DU-145 prostate): 998 nM
- TGI (DU-145 prostate): 4300 nM
- GI50 (EKVX NSCLC): 7200 nM
- TGI (EKVX NSCLC): > 100000 nM
- GI50 (HCC-2998 colon): 1320 nM
- TGI (HCC-2998 colon): 3210 nM
- GI50 (HCT-116 colon): 557 nM
- TGI (HCT-116 colon): 1720 nM
- GI50 (HCT-15 colon): 714 nM
- TGI (HCT-15 colon): 2910 nM
- GI50 (HL-60(TB) leukemia): 962 nM
- TGI (HL-60(TB) leukemia): > 100000 nM
- GI50 (HOP-62 NSCLC): 3670 nM
- TGI (HOP-62 NSCLC): > 100000 nM
- GI50 (HOP-92 NSCLC): 2750 nM
- TGI (HOP-92 NSCLC): > 100000 nM
- GI50 (HS 578T breast): 6210 nM
- TGI (HS 578T breast): > 100000 nM
- GI50 (HT29 colon): 2880 nM
- TGI (HT29 colon): > 100000 nM
- GI50 (IGROV1 ovarian): 3070 nM
- TGI (IGROV1 ovarian): > 100000 nM
- GI50 (K-562 leukemia): 1410 nM
- TGI (K-562 leukemia): > 100000 nM
- GI50 (KM12 colon): 2180 nM
- TGI (KM12 colon): > 23000 nM
- GI50 (LOX IMVI melanoma): 395 nM
- TGI (LOX IMVI melanoma): 1980 nM
- GI50 (M14 melanoma): 738 nM
- TGI (M14 melanoma): 2290 nM
- GI50 (MALME-3M melanoma): 1340 nM
- TGI (MALME-3M melanoma): 4910 nM
- GI50 (MCF7 breast): 824 nM
- TGI (MCF7 breast): > 100000 nM
- GI50 (MDA-MB-231 breast): 2430 nM
- TGI (MDA-MB-231 breast): > 100000 nM
- GI50 (MDA-MB-435): 644 nM
- GI50 (MOLT-4 leukemia): 970 nM
- TGI (MOLT-4 leukemia): > 100000 nM
- GI50 (NCI-H226 lung): 3510 nM
- TGI (NCI-H226 lung): 34100 nM
- GI50 (NCI-H23 lung): 1050 nM
- TGI (NCI-H23 lung): 5030 nM
- GI50 (NCI-H460 lung): 2820 nM
- TGI (NCI-H460 lung): > 100000 nM
- GI50 (NCI-H522 lung): 565 nM
- TGI (NCI-H522 lung): 2030 nM
- GI50 (NCI/ADR-RES ovarian): 1480 nM
- TGI (NCI/ADR-RES ovarian): 10600 nM
- GI50 (OVCAR-3 ovarian): 967 nM
- TGI (OVCAR-3 ovarian): > 21000 nM
- GI50 (OVCAR-4 ovarian): 1260 nM
- TGI (OVCAR-4 ovarian): > 100000 nM
- GI50 (OVCAR-5 ovarian): 13000 nM
- TGI (OVCAR-5 ovarian): > 100000 nM
- GI50 (OVCAR-8 ovarian): 1110 nM
- TGI (OVCAR-8 ovarian): 20100 nM
- GI50 (PC-3 prostate): 3360 nM
- TGI (PC-3 prostate): > 100000 nM
- GI50 (RPMI-8226 leukemia): 2300 nM
- TGI (RPMI-8226 leukemia): > 100000 nM
- GI50 (RXF 393 renal): 236 nM
- TGI (RXF 393 renal): 940 nM
- GI50 (SF-268 CNS): 1290 nM
- TGI (SF-268 CNS): > 100000 nM
- GI50 (SF-295 CNS): 7620 nM
- TGI (SF-295 CNS): > 100000 nM
- GI50 (SF-539 CNS): 2060 nM
- TGI (SF-539 CNS): 7520 nM
- GI50 (SK-MEL-2 melanoma): 1440 nM
- TGI (SK-MEL-2 melanoma): 3970 nM
- GI50 (SK-MEL-28 melanoma): 596 nM
- TGI (SK-MEL-28 melanoma): 2210 nM
- GI50 (SK-MEL-5 melanoma): 656 nM
- TGI (SK-MEL-5 melanoma): 2040 nM
- GI50 (SK-OV-3 ovarian): 4230 nM
- TGI (SK-OV-3 ovarian): > 100000 nM
- GI50 (SN12C renal): 1490 nM
- TGI (SN12C renal): > 100000 nM
- GI50 (SNB-19 CNS): 4600 nM
- TGI (SNB-19 CNS): > 100000 nM
- GI50 (SNB-75 CNS): 1720 nM
- TGI (SNB-75 CNS): > 100000 nM
- GI50 (SW-620 colon): 2030 nM
- TGI (SW-620 colon): > 89000 nM
- GI50 (T-47D breast): 1510 nM
- TGI (T-47D breast): 5770 nM
- GI50 (TK-10 renal): 2900 nM
- TGI (TK-10 renal): > 100000 nM
- GI50 (U251 CNS): 2170 nM
- TGI (U251 CNS): > 26100 nM
- GI50 (UACC-257 melanoma): 906 nM
- TGI (UACC-257 melanoma): 3920 nM
- GI50 (UACC-62 melanoma): 694 nM
- TGI (UACC-62 melanoma): 2260 nM
- GI50 (UO-31 renal): 1200 nM
- TGI (UO-31 renal): 3780 nM
